Results taken from PMC5923123, “In Vitro and In Vivo Efficacy of a Novel and Long-Acting Fungicidal Azole, PC1244, on Aspergillus fumigatus Infection” (Antimicrobial Agents and Chemotherapy, 2018).
In brackets after ≈: the same amount, converted by molar mass. Several values for one entry are separate records, joined by “and”; a condition that tells them apart may be missing. Identical values can stand only once. Like-named read-outs stand apart in the source and are kept apart here.

Legend:
[1] = tested on: BEAS2B cells infected with A. fumigatus; test: Persistence of action in bronchial epithelial cells (galactomannan in supernatant); format: cell-based, Aspergillus fumigatus; settings: for IC50: Aspergillus fumigatus, BEAS-2B, GM readout
Method: In a second system, the persistence of the action of the same three agents on A. fumigatus-infected bronchial epithelial cells was quantified using galactomannan (GM) production in the culture supernatant as an index of fungal growth. BEAS2B cells were infected with A. fumigatus, and the effects of a 24-h washout period (medium change) prior to infection were examined.
The persistence of action of the test agents was evaluated in immortalized bronchial epithelial cells (BEAS2B cells) as previously reported ([28]). […] The plate was incubated for exactly 1 h at 37°C in 5% CO2. After the incubation time had elapsed, all wells on the washout plate were aspirated and growth medium (100 μl/well) was added across the plate. […] The plate was incubated for exactly 1 h at 37°C in 5% CO2, after which A. fumigatus conidia were added across both plates at a final concentration of 1 × 10^3/well. […] This study was conducted in triplicate in three independent experiments.

[2] = tested on: ergosterol production in A. fumigatus (NCPF2010); test: A. fumigatus cell-based ergosterol assay; settings: Aspergillus fumigatus, NCPF2010, 24 h, read-out: IC50, inhibition of ergosterol production
Method: CYP51 enzyme-inhibitory activity was also measured in a cell-based assay, as described previously ([28]). In this plate-based ergosterol quantification experiment, oxidation of ergosterol by cholesterol oxidase was determined by observing the conversion of the weakly fluorescent resazurin to the highly fluorescent resorufin and was normalized using crystal violet staining (indicating cell number).
After incubation for 24 h at 35°C, the medium was removed from all wells and replaced with reaction buffer (catalog number A12216; Amplex red cholesterol assay kit; Thermo Fisher) and Amplex red solution. The plates were incubated for 30 min at 37°C with protection from light, after which the fluorescence was quantified using a spectrophotometer. The medium was removed from all wells and replaced with crystal violet solution (1%, vol/vol), and the plates were incubated at room temperature on a shaker for 30 min. The plates were washed three times with phosphate-buffered saline (PBS), and sodium dodecyl sulfate solution (0.1%, vol/vol) was added across the plate to lyse the cells. After incubation at room temperature for 1 h, the absorbance (OD) at 590 nm was measured using a spectrophotometer.

[3] = tested on: Cladosporium argillaceum (ATCC 38013); test: CLSI MIC; format: cell-based; settings: Rhizocladosporium argillaceum, ATCC38013, 1 strain
A. fumigatus AF72 = test: EUCAST broth microdilution growth inhibition (OD 530 nm, 384-well); format: cell-based; settings: Aspergillus fumigatus, strain AF72 (ITC-resistant), 48 h
Method: (§1) The antifungal activities of the test compounds against A. fumigatus strains (itraconazole [ITC]-susceptible strains NCPF2010, AF294, and AF293; ITC-resistant strains AF72 and AF91) were calculated from growth curves generated by spectrophotometric analysis and compared to the activities against positive and negative controls.

A. fumigatus AF91 = test: as above; format: cell-based; settings: Aspergillus fumigatus, strain AF91 (ITC-resistant), 48 h
Method: as §1

A. fumigatus AF294 = test: as above; format: cell-based; settings: Aspergillus fumigatus, strain AF294 (ITC-susceptible), 48 h
Method: as §1

A. fumigatus AF293 = test: as above; format: cell-based; settings: Aspergillus fumigatus, strain AF293 (ITC-susceptible), 48 h
Method: as §1

[4] = tested on: Rhizopus oryzae(ATCC 11145); test: CLSI MIC; format: cell-based; settings: Rhizopus arrhizus, ATCC11145, 1 strain
[5] = tested on: Aspergillus carbonarius (ATCC 8740); test: CLSI MIC; format: cell-based; settings: ATCC8740
[6] = tested on: Rhizomucor pusillus (ATCC 16458); test: CLSI MIC; format: cell-based; settings: ATCC16458, 1 strain
[7] = tested on: Aureobasidium pullulans (ATCC 348); test: CLSI MIC; format: cell-based; settings: ATCC348, 1 strain
[8] = tested on: 96 clinically isolated A. fumigatus strains; test: EUCAST MIC against clinical isolates (visual); format: cell-based, Aspergillus fumigatus; settings: 96 clinical isolates, visual
Source text: The antifungal activity of PC1244 was further evaluated against 96 clinical isolates (obtained from Saint Louis Hospital, Paris, France [50 isolates], and the North West England Mycology Reference Centre, Manchester, UK [46 isolates]). […] .

[9] = tested on: Trichophyton rubrum (ATCC 10218); test: CLSI MIC; format: cell-based; settings: ATCC10218, 1 strain
[10] = tested on: Gibberella zeae(Fusarium graminearum) (ATCC 16106); test: microbe, parasite or virus in culture; format: cell-based; settings: ATCC16106
[11] = tested on: Candida albicans (20240.047, ATCC 10231); test: CLSI MIC; format: cell-based; settings: ATCC10231
[12] = tested on: Aspergillus flavus (AFL8, NRRC3357); test: EUCAST MIC; format: cell-based
[13] = tested on: Penicillium chrysogenum (ATCC 9480); test: CLSI MIC; format: cell-based; settings: ATCC9480, 1 strain
[14] = tested on: Penicillium citrinum (ATCC 9849); test: CLSI MIC; format: cell-based; settings: ATCC9849, 1 strain
[15] = tested on: Chaetomium globosum (ATCC 44699); test: CLSI MIC; format: cell-based; settings: ATCC44699, 1 strain
A. fumigatus (NCPF2010) [16] = test: Fungicidal activity by XTT colorimetric method (XTT-MFC); settings: Aspergillus fumigatus
Method: In addition, the fungicidal effect of each compound was determined using 2,3-bis-(2-methoxy-4-nitro-5-sulfophenyl)-2H-tetrazolium-5-carboxanilide salt (XTT)-based quantitative colorimetric analysis (XTT-MFC).
After the removal of medium for culture-based testing of the number of CFU, the contents of all wells were carefully aspirated and warm PBS (200 μl/well) was added. After gentle agitation, the contents of all wells were aspirated and fresh medium was added (200 μl/well). The plates were incubated (35°C with ambient air) for 24 h. […] The plates were incubated (35°C with ambient air) for 2 h, after which the plates were agitated gently for 2 min. The optical density (OD) of each well at 450 nm and 620 nm was measured using a multiscanner (Clariostar; BMG, Buckinghamshire, UK).

[17] = tested on: Mucor circinelloides (ATCC 8542); test: CLSI MIC; format: cell-based; settings: ATCC8542, 1 strain
[18] = tested on: Cryptococcus neoformans (ATCC 24067); test: CLSI MIC; format: cell-based; settings: ATCC24067
[19] = tested on: Aspergillus terreus (AT49, AT7130); test: EUCAST MIC; format: cell-based
[20] = tested on: Aspergillus niger (ATCC 1015); test: EUCAST MIC; format: cell-based; settings: ATCC1015
[21] = tested on: Lichtheimia corymbifera (ATCC 7909); test: CLSI MIC; format: cell-based; settings: ATCC7909, 1 strain
A. fumigatus (NCPF2010) [22] = test: Fungicidal activity by subculture on agar (CFU-MFC); settings: Aspergillus fumigatus, NCPF2010, 48 h, read-out: CFU-MFC
Method: After the MIC for each compound was recorded, fungicidal activity was determined as previously described ([35]). Briefly, medium from each well (100 μl/well) was removed after pipetting up and down five times and subcultured onto 4% Sabouraud dextrose agar plates. The plates were incubated (35°C with ambient air) for 48 h, and the numbers of CFU were counted for each compound concentration. The minimum fungicidal concentration (MFC) was determined as the lowest compound concentration yielding 3 colonies or less.

[23] = tested on: Aspergillus flavus (ATCC 204304); test: CLSI MIC; format: cell-based; settings: ATCC204304

What does the source list for `C[C@@H](c1ncncc1F)[C@](O)(Cn1cncn1)c1ccc(F)cc1F` [Voriconazole, voriconazole]?
IC50 ([1]; 1 h contact before infection, no washout, read-out: BEAS2B cells IC50 No washout): 0.054 µg/mL (≈ 0.155 µM); IC50 ([1]; 1 h contact then 24-h washout before infection, read-out: BEAS2B cells IC50 Washout): > 1 µg/mL; activity after 1-h contact and 24-h washout ([1]; BEAS2B cells): ineffective; IC50 [2]: 0.067 µg/mL and 190 nM; MIC [3]: 0.5 µg/mL (≈ 1.43 µM); IC50 (A. fumigatus AF72): 0.025 µg/mL (≈ 0.0716 µM); IC90 (A. fumigatus AF72): 0.066 µg/mL (≈ 0.189 µM); IC50 (A. fumigatus AF91): 0.14 µg/mL (≈ 0.401 µM); IC90 (A. fumigatus AF91): 0.28 µg/mL (≈ 0.802 µM); IC50 (A. fumigatus AF294): 0.083 µg/mL (≈ 0.238 µM); IC90 (A. fumigatus AF294): 0.27 µg/mL (≈ 0.773 µM); IC50 (A. fumigatus AF293): 0.25 µg/mL (≈ 0.716 µM); IC90 (A. fumigatus AF293): 0.74 µg/mL (≈ 2.12 µM); MIC [4]: > 8 µg/mL; MIC [5]: 0.5 µg/mL (≈ 1.43 µM); MIC [6]: > 8 µg/mL; MIC [7]: > 8 µg/mL; MIC Range [8]: 0.06 to 4 µg/mL; MIC50 ([8]; Aspergillus fumigatus): 0.5 µg/mL (≈ 1.43 µM); MIC90 ([8]; Aspergillus fumigatus): 1 µg/mL (≈ 2.86 µM); MIC ([8]; Aspergillus fumigatus, read-out: MIC Geometric mean): 0.42 µg/mL (≈ 1.2 µM); MIC ([8]; Aspergillus fumigatus, read-out: MIC Mode): 0.5 µg/mL (≈ 1.43 µM); MIC [9]: 0.063 µg/mL (≈ 0.18 µM); MIC [10]: > 8 µg/mL; MIC [11]: 0.14 µg/mL (≈ 0.401 µM); MIC [12]: 0.63 µg/mL (≈ 1.8 µM); MIC [13]: 2 µg/mL (≈ 5.73 µM); MIC [14]: > 8 µg/mL; MIC [15]: 1 µg/mL (≈ 2.86 µM); MFC (A. fumigatus (NCPF2010) [16]; NCPF2010, read-out: XTT-MFC): > 32 µg/mL; inhibition at 32 µg/mL (A. fumigatus (NCPF2010) [16]; NCPF2010, read-out: maximum inhibition of fungicidal activity): 69.2%; MIC [17]: > 8 µg/mL; MIC [18]: 0.016 µg/mL (≈ 0.0458 µM); MIC [19]: 1 µg/mL (≈ 2.86 µM); MIC [20]: 1 µg/mL (≈ 2.86 µM); MIC [21]: > 8 µg/mL; MFC (A. fumigatus (NCPF2010) [22]): 16 µg/mL (≈ 45.8 µM); MIC [23]: 2 µg/mL (≈ 5.73 µM)
